# Reference: paper PMC5556071, “ATR inhibition facilitates targeting of leukemia dependence on convergent nucleotide biosynthetic pathways” (Nature Communications, 2017)
# Where “and” joins values, the source holds several entries; their conditions need not be identical. Equal values may be shown once.
# System: CEM cells
# Assay: Non-targeted LC-MS metabolite profiling: percent [13C6]glucose labeling and relative metabolite levels
# Type: cell-based, human
# Conditions: CEM cells, 12 h following release from G1 arrest, replicates #1-#6
# Description: To further investigate the functions of dCK and ATR at the G1/S transition in CEM cells, a non-targeted liquid chromatography mass spectrometry (LC-MS) assay was used to determine the utilization of labeled [^13C6]glucose and [^13C9,^15N3]deoxycytidine, the main substrates for de novo and salvage nucleotide biosynthesis, respectively. Of the 166 metabolites identified in CEM cells treated with VE-822 and/or dCKi, 105 metabolites found in all four treatment groups contained glucose-derived ^13C atoms. […] These metabolites included intermediates such as rUTP, rCTP and rCDP in the de novo dCTP biosynthesis (Fig. 1d). […] However, several deoxyribonucleotides, including dCTP, were below the limit of detection of the non-targeted LC-MS approach, raising the concern that the sensitivity of this assay is not sufficient to measure the contribution of the salvage pathway or the ratio of de novo and salvage biosynthesis to these pools. To address this problem, a newly developed targeted MS assay was developed (Fig. 1e and Supplementary Fig. 3). In this assay, samples containing either extracted dNTPs or hydrolyzed DNA from labeled cells are separated by LC for detection by a triple quadrupole mass spectrometer using multiple reaction monitoring (LC-MS/MS-MRM). The first (Q1) and third (Q3) quadrupoles function as mass filters, while the second (Q2) quadrupole serves as a collision chamber (Fig. 1e). For instance, to profile the biosynthetic composition of deoxycytidine (dC) derived from hydrolyzed DNA or dCTP, an intact, protonated dC ion is selected in Q1, followed by fragmentation of the glycosidic bond, which releases protonated cytosine in Q2, that is filtered in Q3 and detected to generate an ion chromatogram. The peak areas for the ion chromatograms of salvage [^13C9,^15N3]dC (red trace), de novo [^13C5]dC (black trace, from [^13C6]glucose) and unlabeled dC (gray trace) (Fig. 1e) are used to determine the relative contributions of the de novo and salvage routes both to dCTP pools and to DNA-incorporated dCTP.
# Cells were transferred into RPMI-1640 without glucose and supplemented with 10% dialyzed FBS (Gibco) containing the following labeled substrates: precursors for de novo [U-^13C6]glucose (Sigma-Aldrich, 389374) at 11 mM; precursors for purine salvage [U-^13C10,^15N5]dA (Cambridge Isotopes, CIL 3896), [^15N5]dA (Cambridge Isotopes, NLM-3895) and [^15N5]dG (Cambridge Isotopes, NLM-3899) at 5 µM or as indicated; and precursors for pyrimidine salvage: [U-^13C9,^15N3]dC (Silantes, 124603602) and [U-^13C10,^15N2]dT (Cambridge Isotopes, CNLM-3902) at 5 µM and [^15N2]orotate (Cambridge Isotopes, NLM-1048) at indicated concentrations. The cells were incubated for 12 h or as indicated before sample collection and processing. […]
# Non-targeted LC-MS metabolic assays. 1 x 10^6 cells were washed with ice-cold 150 mM ammonium acetate twice before adding 1 mL of ice-cold 80% methanol with 10 nM norvaline as an internal standard. After vigorous vortexing, samples were centrifuged at maximum speed, the aqueous layer was transferred to a glass vial and the metabolites were dried under vacuum. Metabolites were resuspended in 50 μL 70% acetonitrile (ACN) and 5 μL of this solution used for the mass spectrometer-based analysis. The analysis was performed on a Q Exactive (Thermo Scientific) in polarity-switching mode with positive voltage 4.0 kV and negative voltage 4.0 kV. The mass spectrometer was coupled to an UltiMate 3000RSLC (Thermo Scientific) UHPLC system. Mobile phase A was 5 mM ammonium acetate (NH4AcO), pH 9.9, B was acetonitrile and the separation achieved on a Luna […] NH2 100 A column (150 × 2.0 mm, Phenomenex). The flow was 200 μL/min, and the gradient ran from 15% A to 95% A in 18 min, followed by an isocratic step for 9 min and re-equilibration for 7 min. Metabolites were detected and quantified as area under the curve based on retention time and accurate mass (≤ 3 p.p.m.) using the TraceFinder 3.1 (Thermo Scientific). Relative amounts of […]
# [1] = metabolite 2-HG (C02630), listed as V
# [2] = metabolite 2-HIC (C03264), listed as V
# [3] = metabolite 3PG (C00197), listed as V
# [4] = metabolite 5-Oxoproline (C01879), listed as V
# [5] = metabolite A (C00212), listed as V
# [6] = metabolite ADP (C00008), listed as V
# [7] = metabolite AMP (C00020), listed as V
# [8] = metabolite ATP (C00002), listed as V
# [9] = metabolite Ac-carnitine (C02571), listed as V
# [10] = metabolite Ac-choline (C01996), listed as V
# [11] = metabolite Aconitate (C00417), listed as V
# [12] = metabolite Adenine (C00034), listed as V
# [13] = metabolite Ala (C00041), listed as V
# [14] = metabolite Allantoin (C02350), listed as V
# [15] = metabolite Arg (C00062), listed as V
# [16] = metabolite Arg-Succ (C03406), listed as V
smiles,measurement,setting,value
CNCc1ccc(-c2cc(-c3nc(-c4ccc(S(=O)(=O)C(C)C)cc4)cnc3N)on2)cc1 [VE-822],"Relative level, Sarc (C00213)",listed as V,1.3 (2×) and 1.2 and 0.569 and 0.751 and 0.6
same,"Relative level, Ser (C00065)",listed as V,1.4 and 1.5 (2×) and 0.9 and 1.0 and 0.949
same,"Relative level, Shikimate (C00493)",listed as V,1.3 and 1.2 and 1.5 and 1.1 and 0.8 (2×)
same,"Relative level, Succ (C00042)",listed as V,1.6 (2×) and 1.3 and 1.1 and 0.5 (2×)
same,"Relative level, T (C00214)",listed as V,1.1 (2×) and 1.3 (2×) and 1.2 and 1.4
same,"Relative level, Thr (C00188)",listed as V,1.5 and 1.6 (2×) and 1.0 and 0.949 and 0.9
same,"Relative level, Thymine (C00178)",listed as V,1.4 and 1.5 (2×) and 1.0 (2×) and 1.2
same,"Relative level, Trigonelline (C01004)",listed as V,1.3 (3×) and 1.5 and 0.8 and 1.2
same,"Relative level, Trp (C00078)",listed as V,1.4 and 1.5 (2×) and 0.9 (2×) and 1.0
same,"Relative level, Tyr (C00082)",listed as V,1.4 and 1.6 (2×) and 0.9 (3×)
same,"Relative level, Tyramine (C00483)",listed as V,1.0 and 1.1 and 1.7 and 0.8 (2×) and 0.7
same,"Relative level, UDP (C00015)",listed as V,2.4 and 1.3 and 1.6 and 1.1 and 0.7 and 0.6
same,"Relative level, UDP-Glc (C00029)",listed as V,2.4 and 2.0 and 2.8 and 1.5 and 1.4 and 1.7
same,"Relative level, UDP-GlcNAc (C00043)",listed as V,1.2 and 1.1 and 1.4 and 0.747 and 0.8 and 0.9
same,"Relative level, UMP (C00105)",listed as V,2.6 and 2.3 and 2.5 and 2.0 and 0.7 (2×)
same,"Relative level, UTP (C00075)",listed as V,1.2 and 0.571 and 0.7 and 0.75 and 0.4 and 0.355
same,"Relative level, Uracil (C00106)",listed as V,1.2 (2×) and 2.0 and 2.6 and 1.1 and 0.8
same,"Relative level, Uric Acid (C00366)",listed as V,0.5 and 0.9 and 1.4 and 0.242 and 0.282 and 0.253
same,"Relative level, Urocanate (C00785)",listed as V,0.542 and 1.3 and 1.4 and 0.452 and 0.8 and 0.7
same,"Relative level, Val (C00183)",listed as V,1.1 and 1.3 (2×) and 1.5 and 0.9 (2×)
same,"Relative level, Vit-C (C00072)",listed as V,5.1 and 1.4 (2×) and 2.3 and 0.5 and 0.2
same,"Relative level, Xanthine (C00385)",listed as V,0.9 and 1.7 and 2.5 and 2.4 and 0.843 and 0.6
same,"Glucose labeling, 2-HG",[1],9.00% and 8.24% and 8.56% and 6.59% and 3.26% and 5.24%
same,"Relative level, 2-HG",[1],1.5 and 1.0 and 1.3 and 0.9 and 0.545 and 0.5
same,"Glucose labeling, 2-HIC",[2],-2.22e-14% and 0.00% (5×)
same,"Relative level, 2-HIC",[2],1.2 (2×) and 1.5 (2×) and 0.8 and 0.9
same,"Glucose labeling, 2-KIC",metabolite 2-KIC (C00233),0.00%
same,"Relative level, 2-KIC","metabolite 2-KIC (C00233), listed as V",1.1 and 1.2 and 1.3 and 0.9 (2×) and 0.8
same,"Glucose labeling, 2-Oxoadipate",metabolite 2-Oxoadipate (C00322),0.00%
same,"Relative level, 2-Oxoadipate","metabolite 2-Oxoadipate (C00322), listed as V",1.3 and 1.0 (2×) and 1.4 and 1.1 and 0.759
same,"Glucose labeling, 2-Oxosuccinamate",metabolite 2-Oxosuccinamate (C02362),0.0737%
same,"Relative level, 2-Oxosuccinamate","metabolite 2-Oxosuccinamate (C02362), listed as V",0.8 and 0.9 and 1.6 and 2.4 and 0.5 and 0.438
same,"Glucose labeling, 3PG",[3],98.64% and 92.25% and 93.08% and 80.82% and 100.00% (2×)
same,"Relative level, 3PG",[3],1.3 and 0.262 and 0.5 (2×) and 0.0899 and 0.0949
same,"Glucose labeling, 4-OH-PheLac",metabolite 4-OH-PheLac (C03672),0.00%
same,"Relative level, 4-OH-PheLac","metabolite 4-OH-PheLac (C03672), listed as V",1.0 and 1.1 and 1.3 and 0.7 and 0.5 and 0.6
same,"Glucose labeling, 5-Oxoproline",[4],1.06% and 0.96% and 1.16% and 0.74% (2×) and 0.98%
same,"Relative level, 5-Oxoproline",[4],1.0 (2×) and 1.1 (2×) and 0.9 and 0.7
same,"Glucose labeling, 5M-adenosine",metabolite 5M-adenosine (C00170),0.00%
same,"Relative level, 5M-adenosine","metabolite 5M-adenosine (C00170), listed as V",1.7 and 1.9 (2×) and 1.3 (2×) and 1.4
same,"Glucose labeling, A",[5],0.0217% and 0.39% and 0.36% and 0.0233% and 0.0286% and 0.01%
same,"Relative level, A",[5],1.7 and 1.1 and 1.2 and 4.1 and 1.0 and 1.8
same,"Glucose labeling, ADP",[6],63.63% and 60.29% and 63.02% and 59.23% and 57.33% and 59.16%
same,"Relative level, ADP",[6],2.2 and 1.0 and 1.4 and 1.2 and 0.6 (2×)
same,"Glucose labeling, AMP",[7],58.98% and 57.42% and 62.07% and 26.04% and 58.67% and 50.37%
same,"Relative level, AMP",[7],2.8 and 1.7 and 2.2 and 3.0 and 0.8 and 0.7
same,"Glucose labeling, ATP",[8],65.50% and 64.37% and 65.03% and 64.82% and 61.07% and 61.72%
same,"Relative level, ATP",[8],1.5 and 0.6 and 0.849 and 0.9 and 0.466 and 0.5
same,"Glucose labeling, Ac-carnitine",[9],29.64% and 30.01% and 28.25% and 21.49% and 24.07% and 21.63%
same,"Relative level, Ac-carnitine",[9],1.1 (2×) and 1.2 and 0.7 (2×) and 0.8
same,"Glucose labeling, Ac-choline",[10],0.00429% and 0.00459% and 0.00523% and 0.00396% and 0.00509% and 0.00552%
same,"Relative level, Ac-choline",[10],0.746 and 0.8 (3×) and 0.76 and 0.9
same,"Glucose labeling, Aconitate",[11],33.62% and 26.91% and 31.71% and 21.17% and 28.64% and 25.94%
same,"Relative level, Aconitate",[11],1.0 and 0.433 and 0.659 and 0.53 and 0.3 and 0.355
same,"Glucose labeling, Adenine",[12],1.88e-5% and 1.21e-5% and 0.00361% and 1.25e-5% and 1.11e-5% and 0.0013%
same,"Relative level, Adenine",[12],1.8 and 3.0 and 3.1 and 41.9 and 2.1 and 1.5
same,"Glucose labeling, Ala",[13],57.46% and 55.60% and 53.77% and 47.90% and 47.23% and 52.00%
same,"Relative level, Ala",[13],1.3 and 1.5 (2×) and 0.9 (2×) and 1.0
same,"Glucose labeling, Allantoin",[14],0.00% (5×) and -2.22e-14%
same,"Relative level, Allantoin",[14],1.3 (2×) and 1.7 and 1.1 and 0.7 and 1.0
same,"Glucose labeling, Arg",[15],0.00452% and 0.00428% and 0.00453% and 0.00405% and 0.00437% and 0.00476%
same,"Relative level, Arg",[15],1.5 and 1.7 and 1.6 and 0.9 (2×) and 1.1
same,"Glucose labeling, Arg-Succ",[16],10.44% and 8.30% and 5.56% and 3.28% and 1.95% and 6.31%
same,"Relative level, Arg-Succ",[16],1.4 and 1.3 and 1.5 and 0.9 and 0.6 and 0.5
same,"Glucose labeling, Asn","metabolite Asn (C00152), listed as V",5.14e-5% and 2.85e-6% and 2.32e-6% and 0.000702% and 2.84e-6% and 2.39e-6%
